Test system: HBV
Assay: Viral load production from HepAD38 cells, qPCR of the HBV core sequence in supernatant
Type: cell-based
Details: Hepatitis B virus, HePAD38, 120 h, HepAD38 cells, 5 days, HBV DNA in supernatant by qPCR; Table 1 ranges; read-out: Activity (viral load lowering EC50)
Summary of the method: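 EC50 and CC50 come from four-parameter logistic fits of supernatant HBV core DNA (TaqMan qPCR, DNA standards, compared with DMSO wells) and of CellTiter-Glo luminescence.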

Row | Compound | EC50
1 | COC(=O)C12CCC(C(=O)NCC3CC4CC(c5nn(C)c(N)c5C(=O)Nc5ccc(F)c(Cl)c5)CC4C3)(CC1)CC2 (stereo not shown) [Example 77, Methyl 4-(((5-(5-amino-4-((3-chloro-4-fluorophenyl)carbamoyl)-1-methyl-1H-pyrazol-3-yl)octahydropentalen-2-yl)methyl)carbamoyl)bicyclo[2.2.2]octane-1-carboxylate] | 50 to 500 nM
2 | Cn1nc(C2CC3CC(CNC(=O)C45CCN(CC4)CC5)CC3C2)c(C(=O)Nc2ccc(F)c(Cl)c2)c1N (stereo not shown) [Example 78, N-((5-(5-Amino-4-((3-chloro-4-fluorophenyl)carbamoyl)-1-methyl-1H-pyrazol-3-yl)octahydropentalen-2-yl)methyl)quinuclidine-4-carboxamide] | 50 to 500 nM
3 | Cn1nc(C2CC3CC(CNC(=O)C(C)(C)C4CCNCC4)CC3C2)c(C(=O)Nc2ccc(F)c(Cl)c2)c1N (stereo not shown) [Example 79, 5-Amino-N-(3-chloro-4-fluorophenyl)-1-methyl-3-(5-((2-methyl-2-(piperidin-4-yl)propanamido)methyl)octahydropentalen-2-yl)-1H-pyrazole-4-carboxamide] | 50 to 500 nM
4 | Cn1nc(C2CC3CC(CNC(=O)C4CCNC(=O)C4)CC3C2)c(C(=O)Nc2ccc(F)c(Cl)c2)c1N (stereo not shown) [Example 80, N-((5-(5-Amino-4-((3-chloro-4-fluorophenyl)carbamoyl)-1-methyl-1H-pyrazol-3-yl)octahydropentalen-2-yl)methyl)-2-oxopiperidine-4-carboxamide] | 50 to 500 nM
5 | Cn1nc(C2CC3CC(CNC(=O)CCCCCN)CC3C2)c(C(=O)Nc2ccc(F)c(Cl)c2)c1N (stereo not shown) [Example 81, 5-Amino-3-(5-((6-aminohexanamido)methyl)octahydropentalen-2-yl)-N-(3-chloro-4-fluorophenyl)-1-methyl-1H-pyrazole-4-carboxamide] | 50 to 500 nM
6 | Cn1nc(C2CC3CC(CNC(=O)COCCOCCN)CC3C2)c(C(=O)Nc2ccc(F)c(Cl)c2)c1N (stereo not shown) [Example 82, 5-Amino-3-(5-((2-(2-(2-aminoethoxy)ethoxy)acetamido)methyl)octahydropentalen-2-yl)-N-(3-chloro-4-fluorophenyl)-1-methyl-1H-pyrazole-4-carboxamide] | 50 to 500 nM
7 | CNS(=O)(=O)NCC1CC2CC(c3nn(C)c(N)c3C(=O)Nc3ccc(F)c(Cl)c3)CC2C1 (stereo not shown) [Example 83, 5-Amino-N-(3-chloro-4-fluorophenyl)-1-methyl-3-(5-(((N-methylsulfamoyl)amino)methyl)octahydropentalen-2-yl)-1H-pyrazole-4-carboxamide] | < 10 nM
8 | Cn1nc(C2CC3CC(CNS(=O)(=O)c4ccc(OC(F)(F)F)cc4)CC3C2)c(C(=O)Nc2ccc(F)c(Cl)c2)c1N (stereo not shown) [Example 84, 5-Amino-N-(3-chloro-4-fluorophenyl)-1-methyl-3-(5-(((4-(trifluoromethoxy)phenyl)sulfonamido)methyl)octahydropentalen-2-yl)-1H-pyrazole-4-carboxamide] | 50 to 500 nM
9 | Cn1nc(C2CC3CC(CNS(=O)(=O)c4ccc(F)cc4F)CC3C2)c(C(=O)Nc2ccc(F)c(Cl)c2)c1N (stereo not shown) [Example 85, 5-Amino-N-(3-chloro-4-fluorophenyl)-3-(5-(((2,4-difluorophenyl)sulfonamido)methyl)octahydropentalen-2-yl)-1-methyl-1H-pyrazole-4-carboxamide] | < 10 nM
10 | Cn1nc(C2CC3CC(CNS(=O)(=O)c4ccc(Cl)nc4)CC3C2)c(C(=O)Nc2ccc(F)c(Cl)c2)c1N (stereo not shown) [Example 86, 5-Amino-N-(3-chloro-4-fluorophenyl)-3-(5-(((6-chloropyridine)-3-sulfonamido)methyl)octahydropentalen-2-yl)-1-methyl-1H-pyrazole-4-carboxamide] | < 10 nM
11 | CCS(=O)(=O)NCC1CC2CC(c3nn(C)c(N)c3C(=O)Nc3ccc(F)c(Cl)c3)CC2C1 (stereo not shown) [Example 87, 5-Amino-N-(3-chloro-4-fluorophenyl)-3-(5-(ethylsulfonamidomethyl)octahydropentalen-2-yl)-1-methyl-1H-pyrazole-4-carboxamide] | < 10 nM
12 | Cn1nc(C2CC3CC(CNS(C)(=O)=O)CC3C2)c(C(=O)Nc2ccc(F)c(Cl)c2)c1N (stereo not shown) [Example 88, 5-Amino-N-(3-chloro-4-fluorophenyl)-1-methyl-3-(5-(methylsulfonamidomethyl)octahydropentalen-2-yl)-1H-pyrazole-4-carboxamide] | < 10 nM
13 | CCCS(=O)(=O)NCC1CC2CC(c3nn(C)c(N)c3C(=O)Nc3ccc(F)c(Cl)c3)CC2C1 (stereo not shown) [Example 89, 5-Amino-N-(3-chloro-4-fluorophenyl)-1-methyl-3-(5-(propylsulfonamidomethyl)octahydropentalen-2-yl)-1H-pyrazole-4-carboxamide] | < 10 nM
14 | CC(C)S(=O)(=O)NCC1CC2CC(c3nn(C)c(N)c3C(=O)Nc3ccc(F)c(Cl)c3)CC2C1 (stereo not shown) [Example 90, 5-Amino-N-(3-chloro-4-fluorophenyl)-1-methyl-3-(5-(((1-methylethyl)sulfonamido)methyl)octahydropentalen-2-yl)-1H-pyrazole-4-carboxamide] | < 10 nM
15 | Cn1nc(C2CC3CC(CNS(=O)(=O)C4CCC4)CC3C2)c(C(=O)Nc2ccc(F)c(Cl)c2)c1N (stereo not shown) [Example 91, 5-Amino-N-(3-chloro-4-fluorophenyl)-3-(5-(cyclobutanesulfonamidomethyl)octahydropentalen-2-yl)-1-methyl-1H-pyrazole-4-carboxamide] | 10 to 50 nM
16 | Cn1nc(C2CC3CC(CNS(=O)(=O)C4CCCC4)CC3C2)c(C(=O)Nc2ccc(F)c(Cl)c2)c1N (stereo not shown) [Example 92, 5-Amino-N-(3-chloro-4-fluorophenyl)-3-(5-(cyclopentanesulfonamidomethyl)octahydropentalen-2-yl)-1-methyl-1H-pyrazole-4-carboxamide] | 10 to 50 nM
17 | Cn1nc(C2CC3CC(CNS(=O)(=O)C(F)(F)F)CC3C2)c(C(=O)Nc2ccc(F)c(Cl)c2)c1N (stereo not shown) [Example 93, 5-Amino-N-(3-chloro-4-fluorophenyl)-1-methyl-3-(5-(((trifluoromethyl)sulfonamido)methyl)octahydropentalen-2-yl)-1H-pyrazole-4-carboxamide] | 10 to 50 nM
18 | Cn1nc(C2CC3CC(CNS(=O)(=O)C4CC4)CC3C2)c(C(=O)Nc2ccc(F)c(Cl)c2)c1N (stereo not shown) [Example 94, 5-Amino-N-(3-chloro-4-fluorophenyl)-3-(5-(cyclopropanesulfonamidomethyl)octahydropentalen-2-yl)-1-methyl-1H-pyrazole-4-carboxamide] | < 10 nM
19 | Cn1nc(C2CC3CC(CNS(=O)(=O)C4(C)CC4)CC3C2)c(C(=O)Nc2ccc(F)c(Cl)c2)c1N (stereo not drawn) [Example 95, 5-Amino-N-(3-chloro-4-fluorophenyl)-1-methyl-3-(5-(((1-methylcyclopropane)-l-sulfonamido)methyl)octahydropentalen-2-yl)-1H-pyrazole-4-carboxamide] | < 10 nM
20 | Cn1nc(C2CC3CC(CNS(=O)(=O)C4CCOCC4)CC3C2)c(C(=O)Nc2ccc(F)c(Cl)c2)c1N (stereo not shown) [Example 96, 5-Amino-N-(3-chloro-4-fluorophenyl)-1-methyl-3-(5-(((tetrahydro-2H-pyran)-4-sulfonamido)methyl)octahydropentalen-2-yl)-1H-pyrazole-4-carboxamide] | < 10 nM
21 | Cn1nc(C2CC3CC(CNS(=O)(=O)C4CCS(=O)(=O)CC4)CC3C2)c(C(=O)Nc2ccc(F)c(Cl)c2)c1N (stereo not shown) [Example 97, 5-Amino-N-(3-chloro-4-fluorophenyl)-3-(5-(((1,1-dioxidotetrahydro-2H-thiopyran)-4-sulfonamido)methyl)octahydropentalen-2-yl)-1-methyl-1H-pyrazole-4-carboxamide] | 10 to 50 nM
22 | CC(C(F)(F)F)S(=O)(=O)NCC1CC2CC(c3nn(C)c(N)c3C(=O)Nc3ccc(F)c(Cl)c3)CC2C1 (stereo not shown) [Example 98, 5-Amino-N-(3-chloro-4-fluorophenyl)-1-methyl-3-(5-(((2,2,2-trifluoro-1-methylethyl)sulfonamido)methyl)octahydropentalen-2-yl)-1H-pyrazole-4-carboxamide] | 10 to 50 nM
23 | C[C@@H](NC1CC2CC(c3nn(C)c(N)c3C(=O)Nc3ccc(F)c(Cl)c3)CC2C1)C(F)(F)F (stereo partly drawn) [Example 99, 5-Amino-N-(3-chloro-4-fluorophenyl)-1-methyl-3-(5-(((R)-1,1,1-trifluoropropan-2-yl)amino)octahydropentalen-2-yl)-1H-pyrazole-4-carboxamide] | 10 to 50 nM
24 | C[C@H](NC1CC2CC(c3nn(C)c(N)c3C(=O)Nc3ccc(F)c(Cl)c3)CC2C1)C(F)(F)F (stereo partly drawn) [Example 100, 5-Amino-N-(3-chloro-4-fluorophenyl)-1-methyl-3-(5-(((S)-1,1,1-trifluoropropan-2-yl)amino)octahydropentalen-2-yl)-1H-pyrazole-4-carboxamide] | 10 to 50 nM
25 | Cn1nc(C2CC3CC4(CNC(=O)N4)CC3C2)c(C(=O)Nc2ccc(F)c(Cl)c2)c1N (stereo not shown) [Example 114, 5-Amino-N-(3-chloro-4-fluorophenyl)-1-methyl-3-(2-oxohexahydro-1′H-spiro[imidazolidine-4,2′-pentalen]-5′-yl)-1H-pyrazole-4-carboxamide] | 50 to 500 nM
26 | Cn1nc(C2CC3CC4(CC3C2)NC(=O)NC4=O)c(C(=O)Nc2ccc(F)c(Cl)c2)c1N (stereo not shown) [Example 116, 5-Amino-N-(3-chloro-4-fluorophenyl)-3-(2,5-dioxohexahydro-1′H-spiro[imidazolidine-4,2′-pentalen]-5′-yl)-1-methyl-1H-pyrazole-4-carboxamide] | 50 to 500 nM
27 | Cn1nc(C2CC3CN(C4COC4)CC3C2)c(C(=O)Nc2ccc(F)c(Cl)c2)c1N (stereo not shown) [Example 117, 5-Amino-N-(3-chloro-4-fluorophenyl)-1-methyl-3-(2-(oxetan-3-yl)octahydrocyclopenta[c]pyrrol-5-yl)-1H-pyrazole-4-carboxamide] | 50 to 500 nM
28 | Cn1nc(C2CC3CN(C(=O)OC4CC(F)(F)C4)CC3C2)c(C(=O)Nc2ccc(F)c(Cl)c2)c1N (stereo not shown) [Example 118, 3,3-Difluorocyclobutyl 5-(5-amino-4-((3-chloro-4-fluorophenyl)carbamoyl)-1-methyl-1H-pyrazol-3-yl)hexahydrocyclopenta[c]pyrrole-2(1H)-carboxylate] | 50 to 500 nM
